{"source": "patent US8765730B2", "about": "(Hoffmann-La Roche Inc, priority 2010, dated 2014)", "biological_target": "T1, human GPBAR1 receptor (Homo sapiens, UniProt Q8TDU6)", "T1 construct": "expressed in transfected cells", "T1 sequence (Q8TDU6 1-330)": "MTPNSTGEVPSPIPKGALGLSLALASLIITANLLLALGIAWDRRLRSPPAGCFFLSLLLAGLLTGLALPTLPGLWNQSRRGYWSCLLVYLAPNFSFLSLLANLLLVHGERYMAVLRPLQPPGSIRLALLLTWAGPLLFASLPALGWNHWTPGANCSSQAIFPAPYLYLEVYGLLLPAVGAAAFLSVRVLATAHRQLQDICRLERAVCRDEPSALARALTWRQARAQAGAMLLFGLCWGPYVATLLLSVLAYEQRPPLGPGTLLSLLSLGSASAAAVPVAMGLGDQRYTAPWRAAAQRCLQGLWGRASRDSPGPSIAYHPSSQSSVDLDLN", "assay": "functional cAMP assay in CHO-dhfr(minus) cells expressing human GPBAR1 receptors", "assay_type": "cell-based", "details": "human EC50, functional cAMP assay, 30 min at 30° C.", "in_short": "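Agonist cAMP read-out: stable GPBAR1 CHO-dhfr− clone, 30 min compound exposure at 30° C following 30 min IBMX (1 mM) preincubation in Krebs Ringer bicarbonate. Time-resolved energy-transfer detection gives EC50; parental CHO cells serve as counter-screen.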", "data": [{"smiles": "Cc1ccccc1C(C/C(=N\\O)c1ccc(=O)n(C)c1)c1ccc(C(=O)NCC(O)C(F)(F)F)cc1", "note": "(centres unmarked) [Example 309, (E)-4-(3-(Hydroxyimino)-3-(1-methyl-6-oxo-1,6-dihydropyridin-3-yl)-1-o-tolylpropyl)-N-(3,3,3-trifluoro-2-hydroxypropyl)benzamide]", "values": [{"measurement": "EC50", "result": 130, "unit": "nM"}]}, {"smiles": "Cc1ccccc1C(C/C(=N\\O)c1ccc(=O)n(C)c1)c1ccc(C(=O)NCCS(C)(=O)=O)cc1", "note": "(centres unmarked) [Example 310, (E)-4-(3-(Hydroxyimino)-3-(1-methyl-6-oxo-1,6-dihydropyridin-3-yl)-1-o-tolylpropyl)-N-(2-(methylsulfonyl)ethyl)benzamide]", "values": [{"measurement": "EC50", "result": 153, "unit": "nM"}]}, {"smiles": "Cn1cc(/C(CC(c2ccc(C(=O)NCCO)cc2)c2ccc(Cl)cc2F)=N/O)ccc1=O", "note": "(centres unmarked) [Example 311, 4-[1-(4-Chloro-2-fluoro-phenyl)-3-[(E)-hydroxyimino]-3-(1-methyl-6-oxo-1,6-dihydro-pyridin-3-yl)-propyl]-N-(2-hydroxy-ethyl)-benzamide]", "values": [{"measurement": "EC50", "result": 253, "unit": "nM"}]}, {"smiles": "Cn1cc(/C(CC(c2ccc(C(=O)NC[C@@H](O)CO)cc2)c2ccc(Cl)cc2F)=N/O)ccc1=O", "note": "(stereo partly drawn) [Example 312, 4-((E)-1-(4-Chloro-2-fluorophenyl)-3-(hydroxyimino)-3-(1-methyl-6-oxo-1,6-dihydropyridin-3-yl)propyl)-N—((R)-2,3-dihydroxypropyl)benzamide]", "values": [{"measurement": "EC50", "result": 326, "unit": "nM"}]}, {"smiles": "Cn1cc(/C(CC(c2ccc(C(=O)NCCS(C)(=O)=O)cc2)c2ccc(Cl)cc2F)=N/O)ccc1=O", "note": "(centres unmarked) [Example 313, 4-[1-(4-Chloro-2-fluoro-phenyl)-3-[(E)-hydroxyimino]-3-(1-methyl-6-oxo-1,6-dihydro-pyridin-3-yl)-propyl]-N-(2-methanesulfonyl-ethyl)-benzamide]", "values": [{"measurement": "EC50", "result": 266, "unit": "nM"}]}, {"smiles": "Cn1cc(/C(CC(c2ccc(S(C)(=O)=O)cc2)c2ccc(Cl)cc2F)=N/O)ccc1=O", "note": "(centres unmarked) [Example 314, (E)-5-(3-(4-chloro-2-fluorophenyl)-1-(hydroxyimino)-3-(4-(methylsulfonyl)phenyl)propyl)-1-methylpyridin-2(1H)-one]", "values": [{"measurement": "EC50", "result": 84, "unit": "nM"}]}, {"smiles": "Cn1cc(/C(CC(c2cccc(S(C)(=O)=O)c2)c2ccc(Cl)cc2F)=N/O)ccc1=O", "note": "(centres unmarked) [Example 315, (E)-5-(3-(4-Chloro-2-fluorophenyl)-1-(hydroxyimino)-3-(3-(methylsulfonyl)phenyl)propyl)-1-methylpyridin-2(1H)-one]", "values": [{"measurement": "EC50", "result": 647, "unit": "nM"}]}, {"smiles": "CCS(=O)(=O)c1ccc(C(C/C(=N\\O)c2ccc(=O)n(C)c2)c2ccc(Cl)cc2F)cc1", "note": "(centres unmarked) [Example 316, (E)-5-(3-(4-Chloro-2-fluorophenyl)-3-(4-(ethylsulfonyl)phenyl)-1-(hydroxyimino)propyl)-1-methylpyridin-2(1H)-one]", "values": [{"measurement": "EC50", "result": 319, "unit": "nM"}]}, {"smiles": "Cn1cc(/C(CC(c2ccc(CO)cc2)c2ccc(Cl)cc2F)=N/O)ccc1=O", "note": "(centres unmarked) [Example 317, (E)-5-(3-(4-chloro-2-fluorophenyl)-1-(hydroxyimino)-3-(4-(hydroxymethyl)phenyl)propyl)-1-methylpyridin-2(1H)-one]", "values": [{"measurement": "EC50", "result": 10, "unit": "nM"}]}, {"smiles": "Cn1cc(/C(CC(c2ccc(O)cc2)c2ccc(Cl)cc2F)=N/O)ccc1=O", "note": "(centres unmarked) [Example 318, (E)-5-(3-(4-Chloro-2-fluorophenyl)-1-(hydroxyimino)-3-(4-hydroxyphenyl)propyl)-1-methylpyridin-2(1H)-one]", "values": [{"measurement": "EC50", "result": 193, "unit": "nM"}]}, {"smiles": "CC(=O)Nc1cccc(C(C/C(=N\\O)c2ccc(=O)n(C)c2)c2ccc(Cl)cc2F)c1", "note": "(centres unmarked) [Example 319, (E)-N-(3-(1-(4-Chloro-2-fluorophenyl)-3-(hydroxyimino)-3-(1-methyl-6-oxo-1,6-dihydropyridin-3-yl)propyl)phenyl)acetamide]", "values": [{"measurement": "EC50", "result": 2520, "unit": "nM"}]}, {"smiles": "Cn1cc(/C(CC(c2cccc(C(=O)NCCO)c2)c2ccc(Cl)cc2F)=N/O)ccc1=O", "note": "(centres unmarked) [Example 320, (E)-3-(1-(4-Chloro-2-fluorophenyl)-3-(hydroxyimino)-3-(1-methyl-6-oxo-1,6-dihydro-pyridin-3-yl)propyl)-N-(2-hydroxyethyl)benzamide]", "values": [{"measurement": "EC50", "result": 3370, "unit": "nM"}]}, {"smiles": "CN(CCO)C(=O)c1cccc(C(C/C(=N\\O)c2ccc(=O)n(C)c2)c2ccc(Cl)cc2F)c1", "note": "(centres unmarked) [Example 321, (E)-3-(1-(4-Chloro-2-fluorophenyl)-3-(hydroxyimino)-3-(1-methyl-6-oxo-1,6-dihydropyridin-3-yl)propyl)-N-(2-hydroxyethyl)-N-methylbenzamide]", "values": [{"measurement": "EC50", "result": 5200, "unit": "nM"}]}, {"smiles": "Cn1cc(/C(CC(c2cccc(C(=O)N3CCOCC3)c2)c2ccc(Cl)cc2F)=N/O)ccc1=O", "note": "(centres unmarked) [Example 322, (E)-5-(3-(4-Chloro-2-fluorophenyl)-1-(hydroxyimino)-3-(3-(morpholine-4-carbonyl)phenyl)propyl)-1-methylpyridin-2(1H)-one]", "values": [{"measurement": "EC50", "result": 3960, "unit": "nM"}]}, {"smiles": "Cc1cc(Cl)ccc1C(C/C(=N\\O)c1ccc(=O)n(C)c1)c1ccc(OC(C)C)c(F)c1", "note": "(centres unmarked) [Example 323, 5-{3-(4-Chloro-2-methyl-phenyl)-3-(3-fluoro-4-isopropoxy-phenyl)-1-[(E)-hydroxyimino]-propyl}-1-methyl-1H-pyridin-2-one]", "values": [{"measurement": "EC50", "result": 179, "unit": "nM"}]}, {"smiles": "Cc1cc(Cl)ccc1C(C/C(=N\\O)c1ccc(=O)n(C)c1)c1ccc(O)c(F)c1", "note": "(centres unmarked) [Example 324, 5-{3-(4-Chloro-2-methyl-phenyl)-3-(3-fluoro-4-hydroxy-phenyl)-1-[(E)-hydroxyimino]-propyl}-1-methyl-1H-pyridin-2-one]", "values": [{"measurement": "EC50", "result": 566, "unit": "nM"}]}, {"smiles": "Cc1cc(Cl)ccc1C(C/C(=N\\O)c1ccc(=O)n(C)c1)c1ccc(Oc2cccc(C(=O)O)c2)c(F)c1", "note": "(centres unmarked) [Example 325, 3-{4-[1-(4-Chloro-2-methyl-phenyl)-3-[(E)-hydroxyimino]-3-(1-methyl-6-oxo-1,6-dihydro-pyridin-3-yl)-propyl]-2-fluoro-phenoxy}-benzoic acid]", "values": [{"measurement": "EC50", "result": 104, "unit": "nM"}]}, {"smiles": "Cc1cc(Cl)ccc1C(C/C(=N\\O)c1ccc(=O)n(C)c1)c1ccc(Oc2ccc(Cl)c(C(=O)O)c2)c(F)c1", "note": "(centres unmarked) [Example 326, 2-Chloro-5-{4-[1-(4-chloro-2-methyl-phenyl)-3-[(E)-hydroxyimino]-3-(1-methyl-6-oxo-1,6-dihydro-pyridin-3-yl)-propyl]-2-fluoro-phenoxy}-benzoic acid]", "values": [{"measurement": "EC50", "result": 137, "unit": "nM"}]}, {"smiles": "Cc1cc(Cl)ccc1C(C/C(=N\\O)c1ccc(=O)n(C)c1)c1ccc(OCCCC(=O)O)c(F)c1", "note": "(centres unmarked) [Example 327, 4-{4-[1-(4-Chloro-2-methyl-phenyl)-3-[(E)-hydroxyimino]-3-(1-methyl-6-oxo-1,6-dihydro-pyridin-3-yl)-propyl]-2-fluoro-phenoxy}-butyric acid]", "values": [{"measurement": "EC50", "result": 197, "unit": "nM"}]}, {"smiles": "Cc1cc(Cl)ccc1C(C/C(=N\\O)c1ccc(=O)n(C)c1)c1ccc(OCCO)c(F)c1", "note": "(centres unmarked) [Example 328, 5-{3-(4-Chloro-2-methyl-phenyl)-3-[3-fluoro-4-(2-hydroxy-ethoxy)-phenyl]-1-[(E)-hydroxyimino]-propyl}-1-methyl-1H-pyridin-2-one]", "values": [{"measurement": "EC50", "result": 11, "unit": "nM"}]}, {"smiles": "Cc1cc(Cl)ccc1C(C/C(=N\\O)c1ccc(=O)n(C)c1)c1ccc(OS(C)(=O)=O)c(F)c1", "note": "(centres unmarked) [Example 329, Methanesulfonic acid 4-[1-(4-chloro-2-methyl-phenyl)-3-[(E)-hydroxyimino]-3-(1-methyl-6-oxo-1,6-dihydro-pyridin-3-yl)-propyl]-2-fluoro-phenyl ester]", "values": [{"measurement": "EC50", "result": 62, "unit": "nM"}]}, {"smiles": "Cc1ncsc1C(C/C(=N\\O)c1ccc(=O)n(C)c1)c1ccc(Br)cc1", "note": "(centres unmarked) [Example 330, (E)-5-(3-(4-Bromophenyl)-1-(hydroxyimino)-3-(4-methylthiazol-5-yl)propyl)-1-methylpyridin-2(1H)-one]", "values": [{"measurement": "EC50", "result": 92, "unit": "nM"}]}, {"smiles": "Cc1cc(Cl)ccc1C(C/C(=N\\O)c1ccc(=O)n(C)c1)c1ccc(S(C)(=O)=O)cc1", "note": "(centres unmarked) [Example 331, (E)-5-(3-(4-chloro-2-methylphenyl)-1-(hydroxyimino)-3-(4-(methylsulfonyl)phenyl)propyl)-1-methylpyridin-2(1H)-one]", "values": [{"measurement": "EC50", "result": 38, "unit": "nM"}]}, {"smiles": "Cc1cc(Cl)ccc1C(C/C(=N\\O)c1ccc(=O)n(C)c1)c1ccc(C(=O)NCCO)cc1", "note": "(centres unmarked) [Example 332, (E)-4-(1-(4-Chloro-2-methylphenyl)-3-(hydroxyimino)-3-(1-methyl-6-oxo-1,6-dihydropyridin-3-yl)propyl)-N-(2-hydroxyethyl)benzamide]", "values": [{"measurement": "EC50", "result": 129, "unit": "nM"}]}, {"smiles": "Cc1cc(Cl)ccc1C(C/C(=N\\O)c1ccc(=O)n(C)c1)c1ccc(C(=O)NC[C@@H](O)CO)cc1", "note": "(stereo partly drawn) [Example 335, 4-((E)-1-(4-Chloro-2-methylphenyl)-3-(hydroxyimino)-3-(1-methyl-6-oxo-1,6-dihydropyridin-3-yl)propyl)-N—((R)-2,3-dihydroxypropyl)benzamide]", "values": [{"measurement": "EC50", "result": 113, "unit": "nM"}]}, {"smiles": "Cc1cc(Cl)ccc1C(C/C(=N\\O)c1ccc(=O)n(C)c1)c1ccc(C(=O)NCCS(C)(=O)=O)cc1", "note": "(centres unmarked) [Example 336, (E)-4-(1-(4-Chloro-2-methylphenyl)-3-(hydroxyimino)-3-(1-methyl-6-oxo-1,6-dihydropyridin-3-yl)propyl)-N-(2-(methylsulfonyl)ethyl)benzamide]", "values": [{"measurement": "EC50", "result": 330, "unit": "nM"}]}, {"smiles": "Cc1cc(Cl)ccc1C(C/C(=N\\O)c1ccc(=O)n(C)c1)c1ccc(CO)cc1", "note": "(centres unmarked) [Example 337, (E)-5-(3-(4-Chloro-2-methylphenyl)-1-(hydroxyimino)-3-(4-(hydroxymethyl)phenyl)-propyl)-1-methylpyridin-2(1H)-one]", "values": [{"measurement": "EC50", "result": 14, "unit": "nM"}]}, {"smiles": "Cc1cc(Cl)ccc1C(C/C(=N\\O)c1ccc(=O)n(C)c1)c1ccc(S(N)(=O)=O)cc1", "note": "(centres unmarked) [Example 338, (E)-4-(1-(4-chloro-2-methylphenyl)-3-(hydroxyimino)-3-(1-methyl-6-oxo-1,6-dihydropyridin-3-yl)propyl)benzenesulfonamide]", "values": [{"measurement": "EC50", "result": 60, "unit": "nM"}]}, {"smiles": "COCCOCCn1cc(/C(CC(c2ccc(S(C)(=O)=O)cc2)c2ccc(Cl)cc2C)=N/O)ccc1=O", "note": "(centres unmarked) [Example 339, (E)-5-(3-(4-chloro-2-methylphenyl)-1-(hydroxyimino)-3-(4-(methylsulfonyl)phenyl)propyl)-1-(2-(2-methoxyethoxy)ethyl)pyridin-2(1H)-one]", "values": [{"measurement": "EC50", "result": 90, "unit": "nM"}]}]}
